Literature values, collected in patent US8632986B2, “Methods and kits for detection of toxemia” (priority 2008, dated 2014).

Target: albumin (Homo sapiens, UniProt P02768)
Details: general statement

Chain of albumin (P02768 25-609, species assumed): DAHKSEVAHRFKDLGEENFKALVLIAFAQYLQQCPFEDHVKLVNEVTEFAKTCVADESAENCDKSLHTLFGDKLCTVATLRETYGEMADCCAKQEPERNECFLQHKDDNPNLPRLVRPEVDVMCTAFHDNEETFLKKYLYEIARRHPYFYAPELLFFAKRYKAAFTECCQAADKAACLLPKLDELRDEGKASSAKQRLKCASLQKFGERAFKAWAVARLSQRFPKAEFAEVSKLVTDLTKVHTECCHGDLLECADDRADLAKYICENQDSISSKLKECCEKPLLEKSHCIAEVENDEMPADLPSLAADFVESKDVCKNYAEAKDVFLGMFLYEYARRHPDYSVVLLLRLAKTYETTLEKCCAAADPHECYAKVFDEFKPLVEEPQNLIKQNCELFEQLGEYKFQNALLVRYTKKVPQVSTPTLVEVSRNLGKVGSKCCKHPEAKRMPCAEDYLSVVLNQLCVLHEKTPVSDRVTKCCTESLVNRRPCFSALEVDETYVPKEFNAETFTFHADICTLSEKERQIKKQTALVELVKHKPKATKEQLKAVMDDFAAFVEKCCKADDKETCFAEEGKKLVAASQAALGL

binding constant: about 10^9 mol^−1
Compound: CCCCCCCCCCCCCCCCCC(=O)O [unlabeled stearic acid, stearic acid]
